Measured values reported in ChEMBL document CHEMBL1152261, “2-Aminobenzimidazoles as potent ITK antagonists: trans-stilbene-like moieties targeting the kinase specificity pocket” (Bioorg Med Chem Lett, 2008).

Columns and labels:
[1] = target: Insulin receptor (Homo sapiens, UniProt P06213); assay: Inhibition of IRK by DELPHIA
[2] = system: T-cell; assay: Inhibition of anti-CD3/anti-CD28-stimulated IL2 production in human CD4+ T cells
[3] = target: T1, Tyrosine-protein kinase ITK/TSK (Homo sapiens, UniProt Q08881); assay: Inhibition of ITK by DELPHIA
T1 sequence (Q08881 whole entry): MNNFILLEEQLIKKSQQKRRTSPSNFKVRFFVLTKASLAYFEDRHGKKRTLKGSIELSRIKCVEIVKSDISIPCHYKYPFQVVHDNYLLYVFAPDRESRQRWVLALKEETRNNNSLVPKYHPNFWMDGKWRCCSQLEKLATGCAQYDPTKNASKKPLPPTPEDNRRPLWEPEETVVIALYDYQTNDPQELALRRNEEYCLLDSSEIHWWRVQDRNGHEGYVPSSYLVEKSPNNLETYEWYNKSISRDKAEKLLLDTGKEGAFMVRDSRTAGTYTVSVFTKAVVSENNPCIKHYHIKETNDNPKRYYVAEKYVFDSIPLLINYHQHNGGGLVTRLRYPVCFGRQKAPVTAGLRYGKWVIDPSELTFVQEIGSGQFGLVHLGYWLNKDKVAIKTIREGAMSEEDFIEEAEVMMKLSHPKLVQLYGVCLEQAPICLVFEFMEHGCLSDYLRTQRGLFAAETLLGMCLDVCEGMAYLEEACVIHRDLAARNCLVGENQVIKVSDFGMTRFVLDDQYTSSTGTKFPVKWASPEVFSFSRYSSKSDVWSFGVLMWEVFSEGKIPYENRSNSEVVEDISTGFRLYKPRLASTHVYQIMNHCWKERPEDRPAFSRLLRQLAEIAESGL

[4] = target: T1, Tyrosine-protein kinase ITK/TSK; assay: Antagonist activity at ITK expressed in chicken DT40 B cells assessed as inhibition of calcium flux; format: functional, cell-based
[5] = target: Tyrosine-protein kinase BTK (Homo sapiens, UniProt Q06187); assay: Inhibition of BTK
[6] = target: T2, Tyrosine-protein kinase TXK (Homo sapiens, UniProt P42681); assay: Inhibition of TXK
T2 sequence (P42681 whole entry): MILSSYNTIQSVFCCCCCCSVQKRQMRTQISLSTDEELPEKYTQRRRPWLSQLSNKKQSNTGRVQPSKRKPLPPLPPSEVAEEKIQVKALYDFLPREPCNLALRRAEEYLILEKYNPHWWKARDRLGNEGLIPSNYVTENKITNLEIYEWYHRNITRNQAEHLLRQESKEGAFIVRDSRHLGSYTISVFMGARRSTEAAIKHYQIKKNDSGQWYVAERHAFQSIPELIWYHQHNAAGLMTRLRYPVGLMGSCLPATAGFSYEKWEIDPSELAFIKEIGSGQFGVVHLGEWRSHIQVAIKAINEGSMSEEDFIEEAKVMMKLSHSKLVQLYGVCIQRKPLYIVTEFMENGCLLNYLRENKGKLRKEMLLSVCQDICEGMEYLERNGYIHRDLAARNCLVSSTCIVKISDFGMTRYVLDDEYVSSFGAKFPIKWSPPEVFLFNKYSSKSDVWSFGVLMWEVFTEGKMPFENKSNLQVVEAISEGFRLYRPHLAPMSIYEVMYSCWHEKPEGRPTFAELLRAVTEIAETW

Insulin receptor, sequence (P06213 28-758 limits assumed): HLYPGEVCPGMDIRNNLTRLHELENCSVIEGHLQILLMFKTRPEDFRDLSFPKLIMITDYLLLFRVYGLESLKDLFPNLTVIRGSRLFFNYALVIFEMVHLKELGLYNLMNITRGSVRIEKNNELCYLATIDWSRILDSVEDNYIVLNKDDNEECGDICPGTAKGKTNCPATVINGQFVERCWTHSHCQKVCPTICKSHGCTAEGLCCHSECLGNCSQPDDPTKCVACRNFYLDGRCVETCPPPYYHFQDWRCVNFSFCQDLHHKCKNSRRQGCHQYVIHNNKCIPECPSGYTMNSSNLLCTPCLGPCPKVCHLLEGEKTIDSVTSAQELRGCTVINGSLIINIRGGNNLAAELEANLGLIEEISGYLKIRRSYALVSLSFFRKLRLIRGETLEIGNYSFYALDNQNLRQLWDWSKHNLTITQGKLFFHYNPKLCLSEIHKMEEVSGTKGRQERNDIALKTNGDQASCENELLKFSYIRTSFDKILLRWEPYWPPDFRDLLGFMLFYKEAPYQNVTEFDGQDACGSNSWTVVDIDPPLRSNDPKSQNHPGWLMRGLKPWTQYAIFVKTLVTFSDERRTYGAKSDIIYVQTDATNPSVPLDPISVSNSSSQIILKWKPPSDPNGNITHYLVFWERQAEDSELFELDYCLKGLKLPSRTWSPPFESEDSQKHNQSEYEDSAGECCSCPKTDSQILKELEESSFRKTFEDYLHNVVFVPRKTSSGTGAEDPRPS
Insulin receptor, sequence (P06213 763-1382 limits assumed): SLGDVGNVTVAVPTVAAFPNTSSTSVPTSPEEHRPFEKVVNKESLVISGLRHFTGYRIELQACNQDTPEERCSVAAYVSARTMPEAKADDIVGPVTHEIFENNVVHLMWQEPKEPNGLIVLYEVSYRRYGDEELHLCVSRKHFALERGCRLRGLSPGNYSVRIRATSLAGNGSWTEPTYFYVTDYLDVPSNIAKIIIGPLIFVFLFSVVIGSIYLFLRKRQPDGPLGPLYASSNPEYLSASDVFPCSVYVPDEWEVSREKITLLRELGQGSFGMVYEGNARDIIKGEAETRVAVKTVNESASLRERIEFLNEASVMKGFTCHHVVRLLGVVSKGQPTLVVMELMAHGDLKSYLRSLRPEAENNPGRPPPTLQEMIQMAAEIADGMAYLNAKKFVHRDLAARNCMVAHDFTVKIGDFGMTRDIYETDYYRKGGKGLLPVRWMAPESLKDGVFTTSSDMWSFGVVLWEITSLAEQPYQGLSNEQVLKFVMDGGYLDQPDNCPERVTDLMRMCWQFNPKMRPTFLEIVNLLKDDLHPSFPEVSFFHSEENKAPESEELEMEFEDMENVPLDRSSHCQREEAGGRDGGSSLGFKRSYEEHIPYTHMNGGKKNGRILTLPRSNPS
Tyrosine-protein kinase BTK, sequence (Q06187 whole entry): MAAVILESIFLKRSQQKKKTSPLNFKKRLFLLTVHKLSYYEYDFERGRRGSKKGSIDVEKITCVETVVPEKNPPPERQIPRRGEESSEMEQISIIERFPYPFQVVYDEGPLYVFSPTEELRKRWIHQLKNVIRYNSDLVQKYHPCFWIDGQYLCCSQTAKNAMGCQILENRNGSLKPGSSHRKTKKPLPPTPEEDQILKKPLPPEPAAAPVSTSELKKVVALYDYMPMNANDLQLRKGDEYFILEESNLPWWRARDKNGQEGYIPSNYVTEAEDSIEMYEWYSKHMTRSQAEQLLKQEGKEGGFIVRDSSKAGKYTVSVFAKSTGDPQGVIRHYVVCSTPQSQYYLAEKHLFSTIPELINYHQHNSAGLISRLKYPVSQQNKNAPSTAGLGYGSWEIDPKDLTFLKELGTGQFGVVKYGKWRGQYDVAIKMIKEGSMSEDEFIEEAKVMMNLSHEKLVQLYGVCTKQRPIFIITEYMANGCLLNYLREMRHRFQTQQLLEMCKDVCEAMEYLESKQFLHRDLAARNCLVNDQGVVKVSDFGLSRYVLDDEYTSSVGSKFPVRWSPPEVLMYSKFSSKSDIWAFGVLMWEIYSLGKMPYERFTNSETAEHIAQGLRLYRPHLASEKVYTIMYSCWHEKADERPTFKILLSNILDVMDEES

| IC50 [1] | Structure (SMILES) | other results |
| --- | --- | --- |
| 2.2 µM | CN(C(=O)c1ccccc1)c1ccc2c(c1)[nH]/c(=N\C(=O)c1ccc(/C=C/c3ccc(O)cc3)s1)n2CCC(N)=O | – |
| > 5 µM | CN(C(=O)c1ccccc1)c1ccc2c(c1)nc(NC(=O)c1ccc(/C=C/c3cccc(C(F)(F)F)c3)s1)n2CCC(N)=O | – |
| > 5 µM | COc1ccc(/C=C/c2ccc(C(=O)/N=c3\[nH]c4cc(N(C)C(=O)c5ccccc5)ccc4n3CCC(N)=O)s2)cc1 | – |
| > 5 µM | CN(C(=O)c1ccccc1)c1ccc2c(c1)[nH]/c(=N\C(=O)c1ccc(/C=C/c3ccccc3C(F)(F)F)s1)n2CCC(N)=O | – |
| > 5 µM | COc1cccc(/C=C/c2ccc(C(=O)Nc3nc4cc(N(C)C(=O)c5ccccc5)ccc4n3CCC(N)=O)s2)c1 | – |
| – | CN(C(=O)c1ccccc1)c1ccc2c(c1)nc(NC(=O)c1cccs1)n2CCC(N)=O | IC50 [2]: > 5 µM |
| – | CN(C(=O)c1ccccc1)c1ccc2c(c1)[nH]/c(=N\C(=O)c1ccc(/C=C/c3cn[nH]c3)s1)n2CCC(N)=O | IC50 [2]: 3 µM |
| > 5 µM | C=C(C)c1ccc(C(=O)/N=c2\[nH]c3cc(N(C)C(=O)c4ccccc4)ccc3n2CCC(N)=O)s1 | – |
| 3.6 µM | COC(=O)/C=C(\C)c1ccc(C(=O)/N=c2\[nH]c3cc(N(C)C(=O)c4ccccc4)ccc3n2CCC(N)=O)s1 | – |
| > 5 µM | CN(C(=O)c1ccccc1)c1ccc2c(c1)[nH]/c(=N\C(=O)c1ccc(/C=C/n3ccnc3)s1)n2CCC(N)=O | IC50 [3]: 0.012 µM; IC50 [4]: 2.2 µM |
| 0.48 µM | C=Cc1ccc(C(=O)Nc2nc3cc(N(C)C(=O)c4ccccc4)ccc3n2CCC(N)=O)s1 | – |
| 4.9 µM | CN(C(=O)c1ccccc1)c1ccc2c(c1)[nH]/c(=N\C(=O)c1ccc(/C=C/c3cccc(N)c3)s1)n2CCC(N)=O | – |
| 3.3 µM | CN(C(=O)c1ccccc1)c1ccc2c(c1)nc(NC(=O)c1ccc(/C=C/c3ccc(N)cc3)s1)n2CCC(N)=O | – |
| 1.5 µM | CN(C(=O)c1ccccc1)c1ccc2c(c1)[nH]/c(=N\C(=O)c1ccc(/C=C/c3ncc(N)cn3)s1)n2CCC(N)=O | IC50 [3]: 0.005 µM; IC50 [4]: 0.41 µM; IC50 [2]: 1.6 µM; IC50 [5]: 0.005 µM; IC50 [6]: 0.7 µM |
| 4.3 µM | CN(C(=O)c1ccccc1)c1ccc2c(c1)[nH]/c(=N\C(=O)c1ccc(/C=C/c3cccc([N+](=O)[O-])c3)s1)n2CCC(N)=O | – |
| > 5 µM | COc1ccccc1/C=C/c1ccc(C(=O)/N=c2\[nH]c3cc(N(C)C(=O)c4ccccc4)ccc3n2CCC(N)=O)s1 | – |
| 3.8 µM | CN(C(=O)c1ccccc1)c1ccc2c(c1)[nH]/c(=N\C(=O)c1ccc(/C=C/c3cccc(N)n3)s1)n2CCC(N)=O | IC50 [3]: 0.007 µM; IC50 [4]: 2 µM |
| 1.95 µM | CN(C(=O)c1ccccc1)c1ccc2c(c1)[nH]/c(=N\C(=O)c1ccc(/C=C/c3ccccc3N)s1)n2CCC(N)=O | – |
| > 5 µM | C/C(=C\c1ccccc1)c1ccc(C(=O)Nc2nc3cc(N(C)C(=O)c4ccccc4)ccc3n2CCC(N)=O)s1 | – |
| > 5 µM | CN(C(=O)c1ccccc1)c1ccc2c(c1)[nH]/c(=N\C(=O)c1ccc(/C=C/c3ccc(C(F)(F)F)cc3)s1)n2CCC(N)=O | – |
| 0.97 µM | CN(C(=O)c1ccccc1)c1ccc2c(c1)[nH]/c(=N\C(=O)c1ccc(/C=C/c3ccccc3)s1)n2CCC(N)=O | – |
| 4.5 µM | C/C(=C\C#N)c1ccc(C(=O)/N=c2\[nH]c3cc(N(C)C(=O)c4ccccc4)ccc3n2CCC(N)=O)s1 | – |

| Structure (SMILES) | IC50 [1] | other results |
| --- | --- | --- |
| CN(C(=O)c1ccccc1)c1ccc2c(c1)[nH]/c(=N\C(=O)c1ccc(/C=C/c3cccnc3)s1)n2CCC(N)=O | > 5 µM | – |
| COC(=O)/C=C/c1ccc(C(=O)/N=c2\[nH]c3cc(N(C)C(=O)c4ccccc4)ccc3n2CCC(N)=O)s1 | > 5 µM | – |
| CN(C(=O)c1ccccc1)c1ccc2c(c1)[nH]/c(=N\C(=O)c1ccc(/C=C/c3ccncc3)s1)n2CCC(N)=O | > 5 µM | – |
| CN(C(=O)c1ccccc1)c1ccc2c(c1)[nH]/c(=N\C(=O)c1ccc(/C=C/c3cnccn3)s1)n2CCC(N)=O | > 5 µM | IC50 [3]: 0.008 µM; IC50 [4]: 0.81 µM |
| C/C(=C\c1ccncc1)c1ccc(C(=O)/N=c2\[nH]c3cc(N(C)C(=O)c4ccccc4)ccc3n2CCC(N)=O)s1 | > 5 µM | – |
| C/C(=C\c1cccnc1)c1ccc(C(=O)/N=c2\[nH]c3cc(N(C)C(=O)c4ccccc4)ccc3n2CCC(N)=O)s1 | > 5 µM | – |
